Reference: US20130089601A1, “METHOD FOR TREATING ATHEROSCLEROSIS” (KAOHSIUNG MEDICAL UNIVERSITY, priority 2009, published 2013)

Tests used:
Format in all cases: cell-based, human
VSMC cells = assay: Chemotactic migration of VSMC (Transwell); conditions: 100 nM for 24 hours, ox-LDL 40 μg/ml
Experimental: Chemotactic migration is another characteristic of atherosclerosis and can be used as another line of evidence of atherosclerotic change for the cultured VSMC cells. This experiment was assayed by using a microchemotactic chamber and polycarbonate filters with pores of […] in diameter (Transwell, Millipore). After incubated with microRNA-195 (Pre-miR miRNA, hsa-miR-195 (product ID PM10827), Ambion Inc.) (100 nM) or an inhibitor (100 nM) for 24 hours, the VSMC cells were trypsinized and suspended with a serum free medium. A volume (300 μl) of a 1×10^4 cell suspension was placed in the upper chamber, the medium containing ox-LDL (40 μg/ml, each) was placed in the lower and upper chamber. The cell suspension was incubated at a temperature of 37° C. under 5% CO2 in air for 24 hours. After incubation, the VSMC cells on the upper side of the filter were scraped off, and the cells that had directly migrated to the lower side of the filter were trypsinized. The cells were fixed with methanol and stained with a Giemsa solution (Merck). Quantification of chemotactic migration was performed using the hemocytometer.

MCP-1 = MCP-1 secreted from VSMC, sandwich enzyme immunoassay
Experimental: Monocyte chemotactic protein-1 (MCP-1) is a well established atherosclerotic biomarker and it was examined to further test for the influence of microRNA-195 on the atherogenic biomarker. VSMC cells in six-well plates were grown to confluence and then cultivated in a serum-free medium for 24 hours before the experiment. After transfection of microRNA-195 for 24 hours, the cells were further incubated with ox-LDL and simvastatin for another 24 hours. The supernatants of the conditioned medium were collected and frozen at −70° C. The culture supernatants were analyzed to determine the MCP-1 using Sandwich Enzyme Immunoassay kits (BD Biosciences) according to the manufacturer protocol.

[1] = system: THP-1 cells adherent to HUVEC; assay: In vitro adhesion assay of THP-1 cells to HUVEC co-cultured with transfected HASMCs; conditions: in the presence of ox-LDL, vs NC-miR
Text: MicroRNA-195 mimic, microRNA-195 inhibitor and negative control microRNA (NC-miR) were purchased from Ambion Inc. (TX, USA) with the sequences information shown as microRNA-195 mimic, 5′-[…]-3′ (SEQ ID NO: 5); microRNA-195 inhibitor, 5′-[…]-3′ (SEQ ID NO: 6); negative control sequence, 5′-AGUACUGCUUACGAUACGG-3′ (SEQ ID NO: 7). MicroRNA -195 inhibitor was used to specifically bind to and inhibit endogenous microRNA-195. The NC-miR is a random sequence pre-miR molecule that has been extensively tested in human cell lines and tissues and validated to produce no identifiable effects on known miRNA function. […]
At first, human aorta smooth muscle cells (HASMCs) were seeded on the inner side of Millicell® with the PET membrane (Millipore, Hanging 24-well cell culture inserts) at a density of 3×10^5 cells/cm^2 and transfected with microRNA-195 mimic mimic by using lipofectamine2000 for 24 hours. […] Then 4 ml of new culture medium was put in each dish and they were incubated overnight at 37° C. in 5% CO2 and 95% air humidified atmosphere to get ready for use in adhesion experiments of THP-1 cells.
To visualize the THP-1 cells adherent to the HUVEC-HASMC co-culture, the THP-1 cells were labeled with a fluorescent dye, calcein-AM. Fluorescence-labeled cells were resuspended in 4 ml of IMDM containing 10% FCS and prepared for use in adhesion experiments. […]

VCAM-1 = assay: Real-time qPCR of VCAM-1 mRNA in HUVECs co-cultured with transfected HASMCs; conditions: co-cultured with microRNA-195-transfected HASMCs
Experimental: (§1) HASMCs were transfected with negative control microRNA or microRNA-195 with or without the presence of oxLDL. MicroRNA-195-transfected HASMCs were co-cultured with HUVEC. Real-time qPCR analysis of mRNA levels for genes surrogating endothelial functions as well as atherosclerosis, such as vascular cell adhesion molecule-1 (VCAM-1), […] (TNF-a) and interleukin-6 (IL-6), and vasodilation gene, endothelial nitric oxide synthase (eNOS), were determined in HUVECs.

eNOS = assay: Real-time qPCR of eNOS mRNA in HUVECs co-cultured with transfected HASMCs; conditions: co-cultured with microRNA-195-transfected HASMCs
Experimental: as §1

“microRNA-195: Pre-miR miRNA, hsa-miR-195 (product ID PM10827), Ambion Inc., which mimics precursor for mature human miR-195; mimic 5′-UAGCAGCACAGAAAUAUUGGC-3′ (SEQ ID NO: 5) (chemistry not given here)” was tested, and the “chemotactic migration, percentage of migrated cells compared to control medium cells” value (VSMC cells) was 137.6%, the “effect on reducing the atherogenic biomarker (MCP-1) compared with simvastatin” value (MCP-1; ox-LDL stimulation) was “stronger effect” and the MCP-1 levels (MCP-1; transfection 24 hours then ox-LDL 24 hours, culture supernatant) was “significantly decrease”. For the same substance, the “THP-1 cells adhering to HUVEC” value [1] was “fewer”, the “VCAM-1 mRNA level in HUVECs” value (VCAM-1) was “suppresses” and the “eNOS mRNA level in HUVECs” value (eNOS) was “increases”.
